Where “and” joins values, the source holds several entries; their conditions need not be identical. Identical values can stand only once.
Tested on: neurons in the DMV
Assay: Chemogenetic (DREADDs) inhibition of DMV neurons by CNO in obese mice: body weight, blood lipid, fecal TG, jejunal TG
Type: in vivo, C57BL/6J mice
Details: single mice and mean; for Blood lipid level: Inhibition group (hM4D(Gi) virus + CNO i.p. 7 d)
Description: In the present disclosure, the mice were fed with a high-fat diet in which a mass percentage of fat was 60% for 12 weeks, and when a body weight reached 35 g or more, animal models of alimentary obesity were successfully constructed. At a formal stage of the experiment (starting on day 0 in FIG. 1A, FIG. 3A, FIG. 6A, and FIG. 7A), the mice were raised in single cages, during which a daily food intake of each mouse model was accurately recorded, the feces was collected before and after drug intervention, and a daily body weight curve was recorded.
The chemogenetic approach designer receptors exclusively activated by designer drugs (DREADDs) is a research method that controls neuronal excitability in a specific brain region in an animal model, where a downstream signaling pathway of a specific exogenous ligand clozapine N-oxide (CNO) is activated through an adeno-associated virus (AAV) modified by a G protein-coupled receptor (GPCR) to cause a change in neuronal excitability. […]
Four weeks after recovery from surgery, mice in the chemogenetic inhibition group and the control group each were intraperitoneally injected with CNO (Catalog No. BML-NS105, Enzo Life Sciences, USA) at a dose of 1.0 mg/kg BW every day to inhibit the neuronal activity of the DMV, and the daily food intake and body weight were measured and the feces was collected for the mice. The mice were sacrificed after being continuously injected with CNO for 7 d to inhibit the DMV, mouse tissue samples were collected, and physiological and metabolic indexes were detected and analyzed.
A method for determining TG in a sample was as follows: 20 mg to 30 mg of a sample was first weighed, a 5% NP40-containing lysis buffer was added, and a resulting mixture was homogenated and incubated in a metal bath at 95° C. for 5 min, which was repeated twice. […] 2 μl of the supernatant was added to each well, and after a chromogenic reaction was completed, a value of each well was determined by a microplate reader. […]

In the case of `C[N+]1([O-])CCN(C2=Nc3cc(Cl)ccc3Nc3ccccc32)CC1` [CNO, clozapine N-oxide], the Blood lipid level is reported as 0.7414 mM and 0.9111 mM and 0.6521 mM and 0.4645 mM and 0.8754 mM and 0.6342 mM and 0.7146 mM, the Blood lipid level (mean) is reported as 0.7169 mM and the “Body weight curve change percentage” value (Inhibition group (hM4D(Gi) virus in DMV, CNO 1.0 mg/kg BW i.p. daily), Day 0 baseline) is reported as 0.00%.
